According to patent US7084140B2, “Arylglycinamide derivatives, method of producing said derivatives and pharmaceutical compositions containing these compounds” (Boehringer Ingelheim Pharma GmbH & Co. KG, priority 1996, dated 2006):
Structures can show the parent of a compound that is named as a salt.

molecular target: T1, NK1-receptor (substance P-receptor) (Homo sapiens, UniProt P25103); test: Receptor affinity for the NK1-receptor, displacement of 125I-labelled substance P on IM-9 cells; format: binding; conditions: human lymphoblastoma cells (IM-9) with cloned NK1-receptors
T1 construct: expressed in transfected cells; host or cells: IM-9 human lymphoblastoma cells
Protocol: The receptor affinity for the NK1-receptor (substance P-receptor) is determined on human lymphoblastoma cells (IM-9) with cloned NK1-receptors, by measuring the displacement of ^125I-labelled substance P. The K1-values thus obtained show the efficacy of the compounds: […]

T1 sequence (P25103 whole entry): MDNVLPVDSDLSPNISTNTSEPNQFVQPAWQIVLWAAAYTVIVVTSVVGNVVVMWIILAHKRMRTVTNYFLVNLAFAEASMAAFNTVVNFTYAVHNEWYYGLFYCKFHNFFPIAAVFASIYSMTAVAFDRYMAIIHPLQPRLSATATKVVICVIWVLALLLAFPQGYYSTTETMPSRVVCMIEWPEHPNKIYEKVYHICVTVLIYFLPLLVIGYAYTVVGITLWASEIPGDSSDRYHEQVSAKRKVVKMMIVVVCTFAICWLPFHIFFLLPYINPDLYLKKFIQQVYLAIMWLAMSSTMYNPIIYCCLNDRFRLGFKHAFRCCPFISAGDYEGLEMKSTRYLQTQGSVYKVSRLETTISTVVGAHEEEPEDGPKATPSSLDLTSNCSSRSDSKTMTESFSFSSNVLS

Ki [nM] | Structure (SMILES)
1 | CN(CCc1cc(C(F)(F)F)cc(C(F)(F)F)c1)C(=O)C(c1ccccc1)N1CCNCC1 (stereo not drawn) [Example 2]
1.8 | CN1CCN(C2CCN(C(C(=O)N(C)CCc3cc(C(F)(F)F)cc(C(F)(F)F)c3)c3ccccc3)CC2)CC1 (stereo not drawn) [Example 8]
2 | CC(C)NC1CCN(C(C(=O)N(C)CCc2cc(C(F)(F)F)cc(C(F)(F)F)c2)c2ccccc2)CC1 (stereo not drawn) [Example 20]
6 | C#CCN1CCN(C(C(=O)N(C)CCc2cc(C(F)(F)F)cc(C(F)(F)F)c2)c2ccccc2)CC1 (stereo not drawn) [Example 25]
1.6 | CN(CCc1cc(C(F)(F)F)cc(C(F)(F)F)c1)C(=O)C(c1ccccc1)N1CCN(CCO)CC1 (stereo not drawn) [Example 26]
1.8 | COCCN1CCN(C(C(=O)N(C)CCc2cc(C(F)(F)F)cc(C(F)(F)F)c2)c2ccccc2)CC1 (stereo not drawn) [Example 30]
2.9 | CC(C)(Cc1cc(C(F)(F)F)cc(C(F)(F)F)c1)NC(=O)C(c1ccccc1)N1CCNCC1 (stereo not drawn) [Example 34]
1.7 | COc1ccc(C(C(=O)N(C)CCc2cc(C(F)(F)F)cc(C(F)(F)F)c2)N2CCNCC2)cc1OC (stereo not drawn) [Example 47]
1.25 | CN(CCc1cc(C(F)(F)F)cc(C(F)(F)F)c1)C(=O)C(c1ccccc1)N1CCC(N(CCO)CCO)CC1 (stereo not drawn) [Example 55]
2 | CC(C)N1CCN(C(C(=O)N(C)CCc2cc(C(F)(F)F)cc(C(F)(F)F)c2)c2cccc3c2OCO3)CC1 (stereo not drawn) [Example 73]
0.44 | CN(CCc1cc(C(F)(F)F)cc(C(F)(F)F)c1)C(=O)[C@H](c1ccccc1)N1CCNCC1 [Example 75]
2 | CN(CCc1cc(C(F)(F)F)cc(C(F)(F)F)c1)C(=O)C(c1ccccc1)N1CCC(N(C)CCCCO)CC1 (stereo not drawn) [Example 76]

The remaining lines, values behind:

Structure (SMILES) | Ki [nM]
CC(C)N1CCN(C(C(=O)N(C)CCc2cc(C(F)(F)F)cc(C(F)(F)F)c2)c2ccccc2)CC1 (racemic) [Example 1, (R,S)-1-i-propyl-4-[2-phenylacetic acid-N-methyl-N-(3,5-bistrifluoromethylphenylethyl)]-amide dihydrochloride] | 1.2
CN(CCc1cc(C(F)(F)F)cc(C(F)(F)F)c1)C(=O)C(c1ccccc1)N1CCN(c2ncccn2)CC1 (stereo not drawn) [Example 3] | 19
CN1CCCN(C(C(=O)N(C)CCc2cc(C(F)(F)F)cc(C(F)(F)F)c2)c2ccccc2)CC1 (stereo not drawn) [Example 4] | 1.4
CN(CCc1cc(C(F)(F)F)cc(C(F)(F)F)c1)C(=O)C(c1ccccc1)N1CCC(N(C)C)CC1 (stereo not drawn) [Example 5] | 1.5
CN1CCC(N2CCN(C(C(=O)N(C)CCc3cc(C(F)(F)F)cc(C(F)(F)F)c3)c3ccccc3)CC2)CC1 (stereo not drawn) [Example 9] | 2.5
CN(CCc1cc(C(F)(F)F)cc(C(F)(F)F)c1)C(=O)C(c1ccccc1)N1CCN(CC(=O)N2CCCC2)CC1 (stereo not drawn) [Example 11] | 3.8
CN(CCc1cc(C(F)(F)F)cc(C(F)(F)F)c1)C(=O)C(c1ccccc1)N1CCC(N2CCN(CC(N)=O)CC2)CC1 (stereo not drawn) [Example 12] | 5
CN(CCc1cc(C(F)(F)F)cc(C(F)(F)F)c1)C(=O)C(c1ccccc1)N1CCC(N2CCC(N3CCCCC3)CC2)CC1 (stereo not drawn) [Example 13] | 2.4
CCN(CC)C1CCN(C(C(=O)N(C)CCc2cc(C(F)(F)F)cc(C(F)(F)F)c2)c2ccccc2)CC1 (stereo not drawn) [Example 15] | 0.98
CN(CCc1cc(C(F)(F)F)cc(C(F)(F)F)c1)C(=O)C(c1ccccc1)N1CCC(N(C)CCO)CC1 (stereo not drawn) [Example 16] | 0.9
CN(CCc1cc(C(F)(F)F)cc(C(F)(F)F)c1)C(=O)C(c1ccccc1)N1CCC(N)CC1 (stereo not drawn) [Example 17] | 7.75
CNC1CCN(C(C(=O)N(C)CCc2cc(C(F)(F)F)cc(C(F)(F)F)c2)c2ccccc2)CC1 (stereo not drawn) [Example 18] | 0.96
CN(CCc1cc(C(F)(F)F)cc(C(F)(F)F)c1)C(=O)C(c1ccccc1)N1CCC(NC2CCCC2)CC1 (stereo not drawn) [Example 19] | 1.17
CN(CCc1cc(C(F)(F)F)cc(C(F)(F)F)c1)C(=O)C(c1ccccc1)N1CCC(O)CC1 (stereo not drawn) [Example 22] | 2.2
CN(CCc1cc(C(F)(F)F)cc(C(F)(F)F)c1)C(=O)C(c1ccccc1)N1CCC(NCC(=O)N2CCOCC2)CC1 (stereo not drawn) [Example 23] | 2.5
C=CCN1CCN(C(C(=O)N(C)CCc2cc(C(F)(F)F)cc(C(F)(F)F)c2)c2ccccc2)CC1 (stereo not drawn) [Example 24] | 2.2
CN(C)CCN1CCN(C(C(=O)N(C)CCc2cc(C(F)(F)F)cc(C(F)(F)F)c2)c2ccccc2)CC1 (stereo not drawn) [Example 28] | 1.3
CC(C)N1CCN(C(C(=O)N(C)CCc2cc(C(F)(F)F)cc(C(F)(F)F)c2)c2ccccc2)CC1=O (stereo not drawn) [Example 32] | 1.3
CC(C)N1CCN(C(C(=O)NC(C)(C)Cc2cc(C(F)(F)F)cc(C(F)(F)F)c2)c2ccccc2)CC1 (stereo not drawn) [Example 33] | 7.4
CCCN1CCN(C(C(=O)N(C)CCc2cc(C(F)(F)F)cc(C(F)(F)F)c2)c2ccccc2)CC1 (stereo not drawn) [Example 63] | 1.4
CN1CCN(C(C(=O)N(C)CCc2cc(C(F)(F)F)cc(C(F)(F)F)c2)c2ccccc2)CC1 (stereo not drawn) [Example 64] | 1.1
COc1ccc(C(C(=O)N(C)CCc2cc(C(F)(F)F)cc(C(F)(F)F)c2)N2CCN(C(C)C)CC2)cc1OC (stereo not drawn) [Example 65] | 5.7
CC(C)N1CCN(C(C(=O)N(C)CCc2cc(C(F)(F)F)cc(C(F)(F)F)c2)c2ccccc2)CC1 (stereo not drawn) [Example 74] | 1.5

molecular target: T2, NK1 (Cavia porcellus, UniProt P30547); test: Inhibition of lowering of blood pressure caused by NK1 in anaesthetised guinea pigs; format: in vivo; conditions: 1 mg/kg administered into the duodenum, NK1-agonist [βAla4, Sar9, Met(O2)11]SP(4-11) 0.2 μmol/kg i.v.
T2 construct: from tissue; host or cells: whole animal (anaesthetised guinea pig)
Protocol: Inhibition of lowering of blood pressure caused by NK1 in anaesthetised guinea pigs.
Guinea pigs weighing 300–500 grams were anaesthetised with pentobarbital (50 mg/kg i.p.), intubated and artificially ventilated. They were ventilated with 10 ml/kg of air at a frequency of 60 breaths per minute. The carotid artery was canulated and the arterial blood pressure was recorded. A polyethylene tube was inserted into the jugular vein for the intravenous supply of substances.
A temporary reduction in blood pressure was brought about at intervals of 10 minutes by intravenous administration of the NK1-agonist [βAla^4, Sar^9, Met (O2)^11]Sp(4-11)
[drawing 30] in a dose of 0.2 μmol/kg. After the blood pressure thus produced had been measured, the test compound was introduced into the duodenum and the NK1-agonist was again injected every 10 minutes.
The results were expressed as a % inhibition of the reduction in blood pressure caused by the NK1-agonist specified.

T2 sequence (P30547 whole entry): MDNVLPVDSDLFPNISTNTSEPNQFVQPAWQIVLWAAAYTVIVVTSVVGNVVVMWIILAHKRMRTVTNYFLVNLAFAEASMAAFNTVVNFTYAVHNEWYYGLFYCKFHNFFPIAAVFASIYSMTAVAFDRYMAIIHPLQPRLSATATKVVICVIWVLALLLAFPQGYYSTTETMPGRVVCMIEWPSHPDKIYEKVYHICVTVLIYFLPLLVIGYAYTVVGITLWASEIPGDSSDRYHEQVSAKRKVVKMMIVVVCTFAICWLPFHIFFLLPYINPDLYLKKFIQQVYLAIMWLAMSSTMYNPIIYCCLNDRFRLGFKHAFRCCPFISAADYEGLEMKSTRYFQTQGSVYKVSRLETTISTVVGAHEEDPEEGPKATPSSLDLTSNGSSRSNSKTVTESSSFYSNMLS

Structure (SMILES) | % inhibition of the reduction in blood pressure caused by the NK1-agonist [%]
CC(C)N1CCN(C(C(=O)N(C)CCc2cc(C(F)(F)F)cc(C(F)(F)F)c2)c2ccccc2)CC1 (racemic) [Example 1, (R,S)-1-i-propyl-4-[2-phenylacetic acid-N-methyl-N-(3,5-bistrifluoromethylphenylethyl)]-amide dihydrochloride] | 80
